Results from US6242482A, “Prostaglandin compounds and derivatives thereof, compositions containing the same and method of using the same for the treatment of congestive heart failure” (priority 2000, dated 2001).
“Also recorded” adds a separate entry of the source.

Legend:
[1] = tested on: U44069-induced pulmonary hypertension; assay: Effects on pulmonary vascular hypertension in sheep in vivo (Example 16); details: FIG. 5
Description: Each sheep was monitored for measurement of pulmonary arterial pressure (PPA), left atrial pressure (PLA), systemic arterial pressure (PSA), cardiac output (CO), and heart rate (HR). Plasma samples were taken from the sheep subjects to measure drug levels within the blood throughout the experiment. The experiment began upon intravenously infusing a known pulmonary arterial hypertension inducer in a customary manner. The rate of inducement was adjusted to cause the pulmonary vascular resistance (PVR) to increase 3 to 4 times that of the initial baseline PVR. PVR is calculated as the difference between PPA and PLA, divided by the CO. After a stabilization period, a sample of a present prostaglandin compound was administered via a surgically prepared tracheotomy using a MEDICATOR® aerosol drug delivery system (Healthline Medical Inc., Baldwin Park, Calif.), or via intravenous infusion.

[2] = tested on: mean arterial pressure and heart rate of anesthetized rats; assay: Systemic hemodynamic effects, intravenous, anesthetized rats (Example 5); format: in vivo, rat (male Wistar)
Procedure: The time for onset and maximal response were evaluated, as well as the time taken for the response to return to 50% of the baseline value for comparing effective lives. Among other effects, lowering of the blood pressure inside the blood vessels is beneficial for the treatment of congestive heart failure by reducing the vascular resistance blood flow, and thus the work load imposed on the heart.
Male Wistar rats were anesthetized with thiopentone sodium (INTRAVAL®, 120 mg kg^-1 i.p.). The trachea was cannulated to facilitate breathing. The right carotid artery was cannulated and connected to a pressure transducer (Spectramed P23XL), for the measurement of mean arterial pressure (MAP) and heart rate (HR) which were continuously recorded on a 4-channel Grass 7D polygraph recorder (Grass, Mass., USA). The left femoral vein or the right jugular vein was cannulated for the administration of drugs. The body temperature of the test animal was maintained at 37±1° C. by means of a rectal probe thermometer attached to a homeothermic blanket control unit (Harvard Apparatus Ltd).
After a 15 minute stabilization period, the animals were injected once intravenously with selected doses of each compound, and hemodynamic parameters were continuously monitored for three hours in order to ascertain the duration of action of the compounds under study.

[3] = i.v., Compound X 0.1 and 1 mg/kg, Compound 1 doses of b230

In the case of `CCCCC[C@H](O)CC[C@@H]1[C@H]2Cc3cccc(OCC(=O)O)c3C[C@H]2C[C@H]1O` [Compound X], the “PPA-PLA before administration (normalized)” value ([1]; 1 μg/kg aerosol over 15 minutes) is reported as “about 11.25 cmH2 O”, the “PPA-PLA after administration (normalized)” value ([1]; 1 μg/kg aerosol, 10 minutes after termination) is reported as “about 5 cmH2 O” and the “effective life (MAP returning to 50% of baseline value)” value ([2]; 0.1 mg/kg i.v.) is reported as “about fifteen”. The “effective life (MAP returning to 50% of baseline value)” value ([2]; 1.0 mg/kg i.v.) was “about thirty”, the “decline in MAP” value ([2]; i.v.) was “immediate, dose related decline in the MAP; also recorded: substantial dose-related fall in MAP” and the “maximum decline in MAP” value [2, 3] was “about 70 mm Hg”. For the same molecule, the “time of maximum decline in MAP” value [2, 3] was “within the first minute”.
